Source: patent US8765770B2, “Substituted [1,2,4]triazolo[1,5-a]pyrimidines and their use as potassium channel modulators” (Ataxion, Inc., priority 2009, dated 2014)

Molecular target: T1, hSK1 channels (Homo sapiens, UniProt Q92952)
T1 construct: expressed in transfected cells; host or cells: HEK293
Assay: whole-cell patch-clamp recording of ionic current through SK channels (subtype 1) in HEK293 cells expressing hSK1
Type: cell-based
Details: Stimulating Concentration required for increasing the baseline current by 100%
Procedure: The ionic current through small-conductance Ca^2+-activated K^+ channels (SK channels, subtype 1) is recorded using the whole-cell configuration of the patch-clamp technique in a classic patch-clamp set-up using HEK293 tissue culture cells expressing hSK1 channels as described in e.g. WO 2006/100212.
The SC100 value determined is defined as the Stimulating Concentration required for increasing the baseline current by 100%. The below SC100 values are an indication of the SK1 activating properties of the compounds of the invention.

CON=CNc1nc2nccc(C(C)Oc3ccccc3)n2n1 (centres unmarked) [Example A, N-{7-[1-(Phenoxy)ethyl]-[1,2,4]triazolo[1,5-a]pyrimidin-2-yl}-N′-methoxy-formamidine]
SC100: 0.20 µM

CON=CNc1nc2nccc(C(C)Oc3ccccc3C)n2n1 (centres unmarked) [Example 1, N-{7-[1-(2-Methylphenoxy)ethyl]-[1,2,4]triazolo[1,5-a]pyrimidin-2-yl}-N′-methoxy-formamidine]
SC100: 0.02 µM
